One may read the ED50 as the dose that gives a 50% effect, or the effect in half of the subjects. A word on the LD50: it is the dose at which mortality reaches 50%. A higher LD50 goes with a less toxic substance.

The structures appear in SMILES notation.

Consider nine molecules from patent publication US3989701A, “Diamine-benzophenones and a process for the preparation thereof” (Richter Gedeon Vegyeszeti Gyar Rt., priority 1973, dated 1976).

A short description of series [1]: Rotarod / ataxis and reflex retardation. (Falling from the rotarod earlier than controls is read as motor impairment.)
Another series relates to yohimbine lethality. Nature of the series: Potentiation of yohimbine lethality. The series is classed as in vivo, CFLP male mice. As to the method:
To investigate the yohimbine-potentiating effect, CFLP male mice each weighing 20 to 25 g. were treated orally with the compounds according to the invention, and 1 hour after this treatment yohimbine was injected subcutaneously into the animals in a dosage of 20 mg./kg.

Another series can be described thus: LD50 (acute toxicity). The note with it: in vivo, po.
Series [2] in a line: Antipyretic effect (yeast- and pyragro-treated rats, rectal temperature). The series is classed as in vivo, male rats. The note with it: Dosage 40 mg./kg. orally; rectal temperature recorded for 5 hours. The method, then:
To test the antipyretic effect, a 15% yeast suspension was administered to male rats each weighing 180 ±10 g. No food was given to the animals, they could consume, however, arbitrary amount of water. 16 hours after the administration of yeast the rectal temperature of the animals was taken, and the animals were treated with pyragro in an intravenous dosage of 50 M bact./animal. The compound to be tested was administered orally into the animals, thereafter the change in rectal temperature both for the treated and the control animals was recorded for 5 hours, using an "Elab" type electrothermometer. Phenacetine, used as reference substance, and the compounds of the invention were administered in dosages of 40 mg./kg. body weight.

The nature of series [3]: Harmful effects on the kidneys. The series is classed as in vivo. The note with it: in words, compared with phenacetine.
Another series concerns liver microsomal enzymes. The experiment in a line: Enzyme inductive effect (shortening of duration of sleeping after hexobarbital). It is filed as in vivo, Wistar female rats. The note with it: for Average duration of sleeping ± S.E.: Dosage 60 mg./kg. p.o., hexobarbital 40 mg./kg. i.v. 24 hours later, control 27.4 ± 3.02. As to the method:
To investigate the enzyme inductive effect, Wistar female rats, each weighing 40 to 50 g. were treated with pure solvent, or with a dosage of 60 mg./kg. of phenobarbital or the compound to be tested, respectively. 24 hours after this treatment 40 mg./kg. of hexobarbital were administered intravenously into the animals. The decrease of the elimination period and the liver enzyme induction was expressed as the shortening of duration of sleeping.

The nature of series [4]: Effect on the central nervous system. The note with it: in words. It is filed as in vivo.

In series [1] (rotarod), `CN(C)CCCN1c2ccccc2CCc2ccccc21` [Imipramine, 5-(3-dimethylaminopropyl)-10,11-dihydro-5H-dibenz(b,f)azepin, reference compound] returned a TD50 of 28 mg/kg.
Consider `CN1CCN(c2ccc(C(=O)c3ccccc3)cc2N)CC1` [C3, 3-amino-4-(N-methyl-piperazino)-benzophenone], for which, in the series with yohimbine lethality (Mus musculus, sc, yohimbine 20 mg./kg. s.c. 1 hour after treatment, deaths counted at 24 hours, probit analysis), the 50% effective dose (ED50) was found to be 30 mg/kg. In the series on yohimbine lethality (compared with imipramine where stated), the “antidepressant activity / yohimbine lethality increasing effect (in words)” value is “inferior in antidepressant activity to imipramine”. The TD50 in “in vivo” was found to be 160 mg/kg. The LD50 in “LD50 (acute toxicity)” is above 3000 mg/kg. For the same molecule, the “ataxis or reflex retardation” value in series [1] (in the active dosage) is “causes no ataxis or reflex retardation”.
Take `Nc1cc(C(=O)c2ccccc2)ccc1N1CCOCC1` [C8, 3-amino-4-morpholino-benzophenone]: the Decrease of temperature in series [2] is -1.0 °C. In series [3], the “harmful effects on the kidneys” value is “no harmful effects on the kidneys”. For the same molecule, in the series “LD50 (acute toxicity)”, the LD50 is above 3000 mg/kg.
With `CCC1(c2ccccc2)C(=O)NC(=O)NC1=O` [Phenobarbital, reference compound], the “Average duration of sleeping ± S.E.” value in the series with liver microsomal enzymes was 5.4 ± 1.63 min. This molecule also had a 50% lethal dose (LD50) in “LD50 (acute toxicity)” of 240 mg/kg.
Take `CCN(c1ccccc1)c1ccc(C(=O)c2ccccc2)cc1N` [C6, 3-amino-4-(N-ethyl-N-phenylamino)-benzophenone]: the “Average duration of sleeping ± S.E.” value in the series on liver microsomal enzymes is 11.6 ± 2.71 min. In the series “LD50 (acute toxicity)”, the LD50 is above 400 mg/kg.
`CCC(=O)Nc1cc(C(=O)c2ccccc2)ccc1N1CCOCC1.Cl` [C11, 3-propionylamino-4-morpholino-benzophenone HCl]: the “Average duration of sleeping ± S.E.” value in the series with liver microsomal enzymes is 9.0 ± 1.30 min. The “enzyme-inducing effect (in words)” value in the series with liver microsomal enzymes (compared with phenobarbital where stated) is given as “the same in strength as for phenobarbital”. Moreover, the “effect on the central nervous system” value in series [4] is given as “no effect on the central nervous system”. The molecule further registered a median lethal dose (LD50) in the series “LD50 (acute toxicity)” above 450 mg/kg.
As for `CCCCCCCCCCCCCCCC(=O)Nc1cc(C(=O)c2ccccc2)ccc1N1CCOCC1` [C12, 3-palmitoylamino-4-morpholino-benzophenone], the “Average duration of sleeping ± S.E.” value in the series on liver microsomal enzymes was found to be 10.4 ± 1.02 min. In “LD50 (acute toxicity)”, this molecule returned an LD50 above 500 mg/kg.
In series [2], `CCOc1ccc(NC(C)=O)cc1` [Phenacetine, reference compound] returned a Decrease of temperature of -1.0 °C. Also, in “LD50 (acute toxicity)”, the LD50 stood at 2400 mg/kg.
For the molecule `CC(C)CN(CC(C)C)c1ccc(C(=O)c2ccccc2)cc1N` [C7, 3-amino-4-(N,N-diisobutylamino)-benzophenone], in the series with liver microsomal enzymes, the “Average duration of sleeping ± S.E.” value came to 10.0 ± 1.92 min. The LD50 in “LD50 (acute toxicity)” was above 600 mg/kg.
